# Data reported in publication PMC10581841, “Rapid Separation of Asiatic Acid, Quercetin, and Kaempferol from Traditional Chinese Medicine Centella asiatica (L.) Urban Using HSCCC-Semi-Prep-HPLC and the Assessment of Their Potential as Fatty Acid Synthase Inhibitors” (International Journal of Analytical Chemistry, 2023).
# Where two headings read alike, the source gives them in different places.
# Target: T1, fatty acid synthetase (FAS) (Anas platyrhynchos, UniProt A0A0D3LZ43)
# T1 construct: native enzyme purified from fresh duck liver
# T1 sequence (A0A0D3LZ43 1-2514): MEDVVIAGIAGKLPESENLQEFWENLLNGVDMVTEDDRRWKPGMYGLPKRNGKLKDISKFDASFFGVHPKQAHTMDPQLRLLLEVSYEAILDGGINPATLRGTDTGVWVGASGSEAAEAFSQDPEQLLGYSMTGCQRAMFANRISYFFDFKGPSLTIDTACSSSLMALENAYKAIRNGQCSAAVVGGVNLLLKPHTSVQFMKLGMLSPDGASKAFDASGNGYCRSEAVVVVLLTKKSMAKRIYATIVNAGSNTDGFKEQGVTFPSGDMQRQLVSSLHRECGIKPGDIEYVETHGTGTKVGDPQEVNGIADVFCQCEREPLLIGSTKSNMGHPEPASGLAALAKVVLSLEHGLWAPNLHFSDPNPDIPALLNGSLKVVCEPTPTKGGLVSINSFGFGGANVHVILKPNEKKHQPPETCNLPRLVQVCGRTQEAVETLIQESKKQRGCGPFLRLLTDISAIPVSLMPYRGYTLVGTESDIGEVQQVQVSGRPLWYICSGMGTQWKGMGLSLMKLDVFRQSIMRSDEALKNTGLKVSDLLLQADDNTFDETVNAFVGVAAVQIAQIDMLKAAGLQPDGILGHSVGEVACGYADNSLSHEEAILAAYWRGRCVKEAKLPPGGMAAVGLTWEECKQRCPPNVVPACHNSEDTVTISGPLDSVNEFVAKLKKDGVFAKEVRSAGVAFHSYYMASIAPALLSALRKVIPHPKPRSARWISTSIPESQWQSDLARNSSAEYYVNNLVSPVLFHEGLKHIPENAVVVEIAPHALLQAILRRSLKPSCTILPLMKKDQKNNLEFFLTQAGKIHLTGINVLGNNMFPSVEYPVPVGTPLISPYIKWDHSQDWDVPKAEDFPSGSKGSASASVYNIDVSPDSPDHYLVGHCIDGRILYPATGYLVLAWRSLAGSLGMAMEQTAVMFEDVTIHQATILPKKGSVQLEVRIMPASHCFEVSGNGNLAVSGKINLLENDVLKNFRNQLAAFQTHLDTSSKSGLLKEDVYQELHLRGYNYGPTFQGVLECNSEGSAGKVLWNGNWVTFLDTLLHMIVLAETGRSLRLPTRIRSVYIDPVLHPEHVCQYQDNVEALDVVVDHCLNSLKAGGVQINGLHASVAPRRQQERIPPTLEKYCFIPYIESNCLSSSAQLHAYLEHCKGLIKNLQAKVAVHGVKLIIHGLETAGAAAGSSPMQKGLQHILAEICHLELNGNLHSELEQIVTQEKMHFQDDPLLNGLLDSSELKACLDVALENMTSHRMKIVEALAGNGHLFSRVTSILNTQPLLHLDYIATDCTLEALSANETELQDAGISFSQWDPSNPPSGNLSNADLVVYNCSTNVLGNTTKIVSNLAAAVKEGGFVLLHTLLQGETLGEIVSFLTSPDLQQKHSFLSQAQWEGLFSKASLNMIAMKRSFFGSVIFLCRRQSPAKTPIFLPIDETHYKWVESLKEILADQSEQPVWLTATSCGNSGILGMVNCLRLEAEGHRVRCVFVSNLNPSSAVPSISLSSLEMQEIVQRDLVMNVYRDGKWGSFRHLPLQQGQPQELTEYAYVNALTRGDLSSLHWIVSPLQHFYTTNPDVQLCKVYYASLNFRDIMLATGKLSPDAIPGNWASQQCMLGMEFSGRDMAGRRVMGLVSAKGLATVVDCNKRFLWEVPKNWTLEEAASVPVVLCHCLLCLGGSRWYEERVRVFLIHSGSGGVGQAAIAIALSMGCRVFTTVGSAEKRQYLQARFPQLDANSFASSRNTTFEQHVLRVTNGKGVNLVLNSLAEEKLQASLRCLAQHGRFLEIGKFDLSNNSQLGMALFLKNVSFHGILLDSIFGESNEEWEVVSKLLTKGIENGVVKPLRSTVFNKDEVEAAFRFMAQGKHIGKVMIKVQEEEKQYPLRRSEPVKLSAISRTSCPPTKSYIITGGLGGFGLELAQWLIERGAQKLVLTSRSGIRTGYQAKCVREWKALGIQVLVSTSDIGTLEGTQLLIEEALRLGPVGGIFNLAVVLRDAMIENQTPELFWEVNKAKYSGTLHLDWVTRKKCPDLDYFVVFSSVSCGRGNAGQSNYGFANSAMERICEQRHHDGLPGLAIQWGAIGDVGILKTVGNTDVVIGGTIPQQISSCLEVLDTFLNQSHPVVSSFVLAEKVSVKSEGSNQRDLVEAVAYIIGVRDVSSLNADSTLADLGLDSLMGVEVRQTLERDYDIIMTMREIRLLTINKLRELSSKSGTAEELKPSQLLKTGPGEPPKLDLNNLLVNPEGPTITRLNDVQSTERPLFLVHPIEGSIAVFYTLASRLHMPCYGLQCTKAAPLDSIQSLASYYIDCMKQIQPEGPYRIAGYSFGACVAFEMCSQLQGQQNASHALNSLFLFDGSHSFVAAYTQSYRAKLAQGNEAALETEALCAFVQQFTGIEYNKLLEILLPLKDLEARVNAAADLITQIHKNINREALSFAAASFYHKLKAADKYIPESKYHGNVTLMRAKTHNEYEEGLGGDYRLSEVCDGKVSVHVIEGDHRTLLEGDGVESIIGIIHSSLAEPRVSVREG
# Assay: UV spectrophotometric FAS activity assay at […] nm (NADPH)
# Format: biochemical
# [1] = read-out: IC50 (μg/mL) (converted)
IC50 [1] [µM],Compound,IC50 [µM]
19.5,"C[C@H]1[C@H](C)CC[C@]2(C(=O)O)CC[C@]3(C)C(=CC[C@@H]4[C@@]5(C)C[C@@H](O)[C@H](O)[C@@](C)(CO)[C@@H]5CC[C@]43C)[C@H]12 [AA, asiatic acid]",
129,"O=c1c(O)c(-c2ccc(O)cc2)oc2cc(O)cc(O)c12 [KPL, kaempferol]",
,"C[C@H]1[C@H](C)CC[C@]2(C(=O)O)CC[C@]3(C)C(=CC[C@@H]4[C@@]5(C)C[C@@H](O)[C@H](O)[C@@](C)(CO)[C@@H]5[C@H](O)C[C@]43C)[C@H]12 [MA, madecassic acid]",21.5
,"O=c1c(O)c(-c2ccc(O)c(O)c2)oc2cc(O)cc(O)c12 [QCN, quercetin]",143
